What was measured:
[1] = test system: LNCaP cells; experiment: LNCaP cell viability and c-Myc stability; format: cell-based, human; conditions: 50 μM
Description: (§1) The sample was separated by SDS-PAGE (Bio-Rad 4-15%, Cat: 345-0028), transferred to a nitrocellulose membrane (iBlot, Invitrogen) and probed with the indicated antibody. Tyipcally, membranes were blocked with 4% BSA in 1× TBS+0.04% tween-20 for 1 hour before incubating with antibody (typically diluted 1:1000 in 4% BSA inlx TBS+0.04% tween-20) overnight at 4° C. Membranes were then washed three times with 1× TBS+0.04% tween-20 and incubated with secondary antibody (typically diluted 1:5000 in 4% BSA in 1× TBS+0.04% tween-20) for 1 hour at room temperature. Lastly, membranes were washed 3× with 1× TBS+0.04% tween-20 and imaged with ECL. D283-Med cells were treated as above but grown in F12-K media supplemented with 10% FBS and antibiotics. HEK, HeLa and LNCaP cells were treated as above but grown in RPMI media supplemented with 10% FBS and antibiotics.
(§2) Cell viability, cytotoxicity and apoptosis signaling assays were performed in a 96-well plate using ApoTox-Glo reagent (Promega) according to the manufacturer's instructions.

[2] = Aqueous solubility; format: physicochemical
[3] = test system: CHO cells; experiment: ApoTox-Glo cell viability, cytotoxicity and apoptosis signaling assay; format: cell-based, Chinese hamster
Description: as §2

[4] = test system: cell surface glycans of CHO cells; experiment: Lectin blots of cell surface glycans of CHO cells; format: cell-based, Chinese hamster; conditions: 50 μM, 24 hours
Description: Lectin blots were performed with the CHO-K1 cell lysate as prepared above. […] The biotin label on the lectins was visualized with incubation with Streptavidin-HRP (Pierce) followed by ECL detection and imaging.

[5] = test system: CHO, HEK-293, HeLa and D283-Med cells; experiment: Immunoblotting of global O-GlcNAcylation in various mammalian cell types; format: cell-based; conditions: 50 μM, 24 hours
Description: (§3) In vivo inhibition of glycosylation: For all immunoblotting experiments, CHO-K1 (CHO) cells were grown in F12-K media supplemented with 10% FBS and antibiotics at 37° C. in a 5% CO2 incubator. Cells were treated by adding indicated inhibitor in DMSO vehicle (0.5% final vehicle concentration) upon reaching 70% confluence. After indicated treatment length, cells were harvested by aspirating growth media and washing with ice cold 1× PBS. Cells were subsequently lysed in boiling 1% SDS/20 mM HEPES 7.9. After cooling to room temperature, 1 mM PMSF, 10 μM PUGNAC, 10 μM TMG and 1× Complete protease inhibitor cocktail were added to the solution. The mixture was sonicated and then subjected to a 5 minute incubation at 95° C. The samples were centrifuged for 15 minutes at 20,000×g and the supernatant was collected and the total protein was measured by BCA assay (BIO-RAD).
The sample was separated by SDS-PAGE (Bio-Rad 4-15%, Cat: 345-0028), transferred to a nitrocellulose membrane (iBlot, Invitrogen) and probed with the indicated antibody. Tyipcally, membranes were blocked with 4% BSA in 1× TBS+0.04% tween-20 for 1 hour before incubating with antibody (typically diluted 1:1000 in 4% BSA inlx TBS+0.04% tween-20) overnight at 4° C. […]

[6] = test system: OGT in CHO cells; experiment: Markers of OGT inhibition in CHO cells (Nup62 mass shift, OGA levels, H2B-S112 O-GlcNAc); format: cell-based, Chinese hamster
Description: as §3, §1

With `COc1ccccc1[C@@H](NS(=O)(=O)c1ccc2[nH]c(=O)ccc2c1)C(=O)N(Cc1ccco1)Cc1cccs1` [OSMI-1, (R)—N-(furan-2-ylmethyl)-2-(2-methoxyphenyl)-2-(2-oxo-1,2-dihydroquinoline-6-sulfonamido)-N-(thiophen-2-ylmethyl)acetamide] the LNCaP cell viability ([1]; 48 hrs) was “decrease in cell viability”, the c-Myc stability ([1]; LNCaP cells, 6 and 48 hours) was “decreases c-Myc stability” and the Aqueous solubility [2] was “limited aqueous solubility”. The Cytotoxicity ([3]; 50 μM) was “not cytotoxic”, the “Decrease of cell viability” value ([3]; 50 μM, 24 hours) was “about 50%” and the Apoptotic signaling ([3]; up to 50 μM) was “does not trigger apoptotic signaling”. For the same compound, the “Changes in bands detected by ConA, PHA-L, ECL, GSL-I, PNA or DBA” value [4] was “minimal changes”, the “Global O-GlcNAc levels in four cell lines” value [5] was “reduce global O-GlcNAc levels in all four lines examined” and the “Cellular OGA levels” value [6] was “reduced cellular OGA”. For the same compound, the Nup62 mass shift [6] was “shift to a lower molecular weight” and the “O-GlcNAc modification of histone H2B-S112” value [6] was “greatly reduced”.
